From ChEMBL document CHEMBL3865816, “Design, synthesis and biological evaluation of novel azaspiro analogs of linezolid as antibacterial and antitubercular agents” (Eur J Med Chem, 2016)
Values after ≈ are worked out from the molar mass of the structure shown.

How the values were obtained:
Format in all cases: functional
[1] = system: Pseudomonas aeruginosa; experiment: Antibacterial activity against Pseudomonas aeruginosa NCIM 2036 at 3 ug/ml measured after 8 hrs by spectrophotometric method; conditions: NCIM 2036, 8 h
[2] = system: Escherichia coli; experiment: Antibacterial activity against Escherichia coli NCIM 2688 at 10 ug/ml measured after 8 hrs by spectrophotometric method; conditions: NCIM 2688, 8 h
[3] = system: Staphylococcus aureus; experiment: Antibacterial activity against Staphylococcus aureus NCIM 2079 measured after 12 hrs by spectrophotometric method; conditions: NCIM 2079, 12 h
[4] = system: Escherichia coli; experiment: Antibacterial activity against Escherichia coli NCIM 2688 at 30 ug/ml measured after 8 hrs by spectrophotometric method; conditions: NCIM 2688, 8 h
[5] = system: Staphylococcus aureus; experiment: Antibacterial activity against Staphylococcus aureus NCIM 2079 at 30 ug/ml measured after 12 hrs by spectrophotometric method; conditions: NCIM 2079, 12 h
[6] = system: Mycobacterium tuberculosis; experiment: Antitubercular activity against dormant stage Mycobacterium tuberculosis H37Ra at 3 ug/ml measured after 12 days by XTT assay; conditions: 288 h
[7] = system: Bacillus subtilis; experiment: Antibacterial activity against Bacillus subtilis NCIM 2010 at 10 ug/ml measured after 12 hrs by spectrophotometric method; conditions: NCIM 2010, 12 h
[8] = system: Bacillus subtilis; experiment: Antibacterial activity against Bacillus subtilis NCIM 2010 measured after 12 hrs by spectrophotometric method; conditions: NCIM 2010, 12 h
[9] = system: Staphylococcus aureus; experiment: Antibacterial activity against Staphylococcus aureus NCIM 2079 at 10 ug/ml measured after 12 hrs by spectrophotometric method; conditions: NCIM 2079, 12 h
[10] = system: Bacillus subtilis; experiment: Antibacterial activity against Bacillus subtilis NCIM 2010 at 3 ug/ml measured after 12 hrs by spectrophotometric method; conditions: NCIM 2010, 12 h
[11] = system: Mycobacterium tuberculosis; experiment: Antitubercular activity against dormant stage Mycobacterium tuberculosis H37Ra measured after 12 days by XTT assay; conditions: 288 h
[12] = system: Staphylococcus aureus; experiment: Antibacterial activity against Staphylococcus aureus NCIM 2079 at 3 ug/ml measured after 12 hrs by spectrophotometric method; conditions: NCIM 2079, 12 h
[13] = system: Mycobacterium tuberculosis; experiment: Antitubercular activity against dormant stage Mycobacterium tuberculosis H37Ra at 30 ug/ml measured after 12 days by XTT assay; conditions: 288 h
[14] = system: Bacillus subtilis; experiment: Antibacterial activity against Bacillus subtilis NCIM 2010 at 30 ug/ml measured after 12 hrs by spectrophotometric method; conditions: NCIM 2010, 12 h
[15] = system: Escherichia coli; experiment: Antibacterial activity against Escherichia coli NCIM 2688 measured after 8 hrs by spectrophotometric method; conditions: NCIM 2688, 8 h
[16] = system: Escherichia coli; experiment: Antibacterial activity against Escherichia coli NCIM 2688 at 3 ug/ml measured after 8 hrs by spectrophotometric method; conditions: NCIM 2688, 8 h
[17] = system: Pseudomonas aeruginosa; experiment: Antibacterial activity against Pseudomonas aeruginosa NCIM 2036 measured after 8 hrs by spectrophotometric method; conditions: NCIM 2036, 8 h
[18] = system: Pseudomonas aeruginosa; experiment: Antibacterial activity against Pseudomonas aeruginosa NCIM 2036 at 10 ug/ml measured after 8 hrs by spectrophotometric method; conditions: NCIM 2036, 8 h
[19] = system: Pseudomonas aeruginosa; experiment: Antibacterial activity against Pseudomonas aeruginosa NCIM 2036 at 30 ug/ml measured after 8 hrs by spectrophotometric method; conditions: NCIM 2036, 8 h
[20] = system: Mycobacterium tuberculosis; experiment: Antitubercular activity against dormant stage Mycobacterium tuberculosis H37Ra at 10 ug/ml measured after 12 days by XTT assay; conditions: 288 h

## O=C1O[C@@H](CNC(=S)Nc2ccc([N+](=O)[O-])cc2)CN1c1ccc(N2CC3(COC3)C2)c(F)c1
[1]
  inhibition at 3 µg/mL: 9.11%
[2]
  inhibition at 10 µg/mL: 61%
[3]
  IC50: > 100 µg/mL
  MIC: > 100 µg/mL
[4]
  inhibition at 30 µg/mL: 65.5%
[5]
  inhibition at 30 µg/mL: 81%
[6]
  inhibition at 3 µg/mL: 9.41%
[7]
  inhibition at 10 µg/mL: 76.2%
[8]
  IC50: > 100 µg/mL
  MIC: > 100 µg/mL
[9]
  inhibition at 10 µg/mL: 74.5%
[10]
  inhibition at 3 µg/mL: 62.7%
[11]
  IC50: > 100 µg/mL
  MIC: > 100 µg/mL
[12]
  inhibition at 3 µg/mL: 66.7%
[13]
  inhibition at 30 µg/mL: -13.5%
[14]
  inhibition at 30 µg/mL: 80.4%
[15]
  IC50: > 100 µg/mL
  MIC: > 100 µg/mL
[16]
  inhibition at 3 µg/mL: 51.8%
[17]
  IC50: > 100 µg/mL
  MIC: > 100 µg/mL
[18]
  inhibition at 10 µg/mL: 41.8%
[19]
  inhibition at 30 µg/mL: 73.6%
[20]
  inhibition at 10 µg/mL: 4.66%

## O=C1O[C@@H](CNS(=O)(=O)c2cccc(C(F)(F)F)c2)CN1c1ccc(N2CC3(COC3)C2)c(F)c1
[1]
  inhibition at 3 µg/mL: 0.66%
[2]
  inhibition at 10 µg/mL: 97.5%
[3]
  IC50: > 100 µg/mL
  MIC: > 100 µg/mL
[4]
  inhibition at 30 µg/mL: 99.5%
[5]
  inhibition at 30 µg/mL: 19.5%
[6]
  inhibition at 3 µg/mL: 5.38%
[7]
  inhibition at 10 µg/mL: 17.5%
[8]
  IC50: > 100 µg/mL
  MIC: > 100 µg/mL
[9]
  inhibition at 10 µg/mL: 17.3%
[10]
  inhibition at 3 µg/mL: 11.2%
[11]
  IC50: > 100 µg/mL
  MIC: > 100 µg/mL
[12]
  inhibition at 3 µg/mL: -2.71%
[13]
  inhibition at 30 µg/mL: 25.1%
[14]
  inhibition at 30 µg/mL: 25%
[15]
  IC50: 0.57 µg/mL (≈ 1.11 µM)
  MIC: 3.03 µg/mL (≈ 5.88 µM)
[16]
  inhibition at 3 µg/mL: 90.5%
[17]
  IC50: > 100 µg/mL
  MIC: > 100 µg/mL
[18]
  inhibition at 10 µg/mL: 43%
[19]
  inhibition at 30 µg/mL: 70.8%
[20]
  inhibition at 10 µg/mL: -59%

## O=C1OC2(CCN(Cc3ccccc3)C2)CN1c1ccc(N2CCOCC2)c(F)c1 (stereo not given)
[1]
  inhibition at 3 µg/mL: 35.9%
[2]
  inhibition at 10 µg/mL: 23.7%
[3]
  IC50: > 100 µg/mL
  MIC: > 100 µg/mL
[4]
  inhibition at 30 µg/mL: 23.9%
[5]
  inhibition at 30 µg/mL: 23.1%
[6]
  inhibition at 3 µg/mL: 18.1%
[7]
  inhibition at 10 µg/mL: 17.4%
[8]
  IC50: > 100 µg/mL
  MIC: > 100 µg/mL
[9]
  inhibition at 10 µg/mL: 22.9%
[10]
  inhibition at 3 µg/mL: 24.5%
[11]
  IC50: > 100 µg/mL
  MIC: > 100 µg/mL
[12]
  inhibition at 3 µg/mL: 30.5%
[13]
  inhibition at 30 µg/mL: 20.8%
[14]
  inhibition at 30 µg/mL: 14.7%
[15]
  IC50: > 100 µg/mL
  MIC: > 100 µg/mL
[16]
  inhibition at 3 µg/mL: 31.2%
[17]
  IC50: > 100 µg/mL
  MIC: > 100 µg/mL
[18]
  inhibition at 10 µg/mL: 32.7%
[19]
  inhibition at 30 µg/mL: 50.1%
[20]
  inhibition at 10 µg/mL: 7.06%

## CC(C)NC(=S)NC[C@H]1CN(c2ccc(N3CC4(COC4)C3)c(F)c2)C(=O)O1
[1]
  inhibition at 3 µg/mL: 72.6%
[2]
  inhibition at 10 µg/mL: 58.9%
[3]
  IC50: > 100 µg/mL
  MIC: > 100 µg/mL
[4]
  inhibition at 30 µg/mL: 91.3%
[5]
  inhibition at 30 µg/mL: 93%
[6]
  inhibition at 3 µg/mL: -11.7%
[7]
  inhibition at 10 µg/mL: 95.1%
[8]
  IC50: 0.64 µg/mL (≈ 1.57 µM)
  MIC: 6.04 µg/mL (≈ 14.8 µM)
[9]
  inhibition at 10 µg/mL: 75.2%
[10]
  inhibition at 3 µg/mL: 82%
[11]
  IC50: > 100 µg/mL
  MIC: > 100 µg/mL
[12]
  inhibition at 3 µg/mL: 58.8%
[13]
  inhibition at 30 µg/mL: 48.8%
[14]
  inhibition at 30 µg/mL: 99.3%
[15]
  IC50: > 100 µg/mL
  MIC: > 100 µg/mL
[16]
  inhibition at 3 µg/mL: 46.7%
[17]
  IC50: 1.27 µg/mL (≈ 3.11 µM)
  MIC: 32.3 µg/mL (≈ 79 µM)
[18]
  inhibition at 10 µg/mL: 83.8%
[19]
  inhibition at 30 µg/mL: 91.4%
[20]
  inhibition at 10 µg/mL: 7.27%

## O=C(NC[C@H]1CN(c2ccc(N3CC4(COC4)C3)c(F)c2)C(=O)O1)c1ccc(C(F)(F)F)cc1
[1]
  inhibition at 3 µg/mL: 74.9%
[2]
  inhibition at 10 µg/mL: 59.7%
[3]
  IC50: 0.67 µg/mL (≈ 1.4 µM)
  MIC: 22.3 µg/mL (≈ 46.5 µM)
[4]
  inhibition at 30 µg/mL: 74.1%
[5]
  inhibition at 30 µg/mL: 92.2%
[6]
  inhibition at 3 µg/mL: -10.1%
[7]
  inhibition at 10 µg/mL: 78.8%
[8]
  IC50: > 100 µg/mL
  MIC: > 100 µg/mL
[9]
  inhibition at 10 µg/mL: 84.4%
[10]
  inhibition at 3 µg/mL: 65.4%
[11]
  IC50: > 100 µg/mL
  MIC: > 100 µg/mL
[12]
  inhibition at 3 µg/mL: 78.4%
[13]
  inhibition at 30 µg/mL: -20.7%
[14]
  inhibition at 30 µg/mL: 95.8%
[15]
  IC50: > 100 µg/mL
  MIC: > 100 µg/mL
[16]
  inhibition at 3 µg/mL: 33.8%
[17]
  IC50: 1.19 µg/mL (≈ 2.48 µM)
  MIC: 18.1 µg/mL (≈ 37.8 µM)
[18]
  inhibition at 10 µg/mL: 84.9%
[19]
  inhibition at 30 µg/mL: 98.3%
[20]
  inhibition at 10 µg/mL: -4.6%

## COCC(=O)NC[C@H]1CN(c2ccc(N3CC4(COC4)C3)c(F)c2)C(=O)O1
[1]
  inhibition at 3 µg/mL: 14.4%
[2]
  inhibition at 10 µg/mL: 65.4%
[3]
  IC50: > 100 µg/mL
  MIC: > 100 µg/mL
[4]
  inhibition at 30 µg/mL: 66.6%
[5]
  inhibition at 30 µg/mL: 98.8%
[6]
  inhibition at 3 µg/mL: -22.9%
[7]
  inhibition at 10 µg/mL: 77.7%
[8]
  IC50: > 100 µg/mL
  MIC: > 100 µg/mL
[9]
  inhibition at 10 µg/mL: 92.2%
[10]
  inhibition at 3 µg/mL: 51.2%
[11]
  IC50: > 100 µg/mL
  MIC: > 100 µg/mL
[12]
  inhibition at 3 µg/mL: 72.3%
[13]
  inhibition at 30 µg/mL: 50.1%
[14]
  inhibition at 30 µg/mL: 95.2%
[15]
  IC50: > 100 µg/mL
  MIC: > 100 µg/mL
[16]
  inhibition at 3 µg/mL: 61.5%
[17]
  IC50: > 100 µg/mL
  MIC: > 100 µg/mL
[18]
  inhibition at 10 µg/mL: 37.1%
[19]
  inhibition at 30 µg/mL: 63.7%
[20]
  inhibition at 10 µg/mL: -13.7%

## N#Cc1ccc(NC(=S)NC[C@H]2CN(c3ccc(N4CC5(COC5)C4)c(F)c3)C(=O)O2)cc1
[1]
  inhibition at 3 µg/mL: 22.1%
[2]
  inhibition at 10 µg/mL: 93.2%
[3]
  IC50: 1.03 µg/mL (≈ 2.2 µM)
  MIC: 11.2 µg/mL (≈ 24 µM)
[4]
  inhibition at 30 µg/mL: 95.7%
[5]
  inhibition at 30 µg/mL: 94.3%
[6]
  inhibition at 3 µg/mL: 34.5%
[7]
  inhibition at 10 µg/mL: 97.6%
[8]
  IC50: 0.86 µg/mL (≈ 1.84 µM)
  MIC: 3.87 µg/mL (≈ 8.28 µM)
[9]
  inhibition at 10 µg/mL: 91.6%
[10]
  inhibition at 3 µg/mL: 81.3%
[11]
  IC50: > 100 µg/mL
  MIC: > 100 µg/mL
[12]
  inhibition at 3 µg/mL: 75.6%
[13]
  inhibition at 30 µg/mL: 34.7%
[14]
  inhibition at 30 µg/mL: 98%
[15]
  IC50: 1 µg/mL (≈ 2.14 µM)
  MIC: 9.54 µg/mL (≈ 20.4 µM)
[16]
  inhibition at 3 µg/mL: 78.2%
[17]
  IC50: > 100 µg/mL
  MIC: > 100 µg/mL
[18]
  inhibition at 10 µg/mL: 46.6%
[19]
  inhibition at 30 µg/mL: 50%
[20]
  inhibition at 10 µg/mL: 58.1%
